These results are taken from publication PMC3163123 (Bioorganic & medicinal chemistry, 2011).

Series [1] concerns the target T1, recombinant wild-type HIV-1 IN (Human immunodeficiency virus type 1 group M subtype B, UniProt P12497). The series can be described thus: Integrase catalytic activity assay, 3′-processing. In kind it is biochemical.
In series [2] the target is T1, recombinant wild-type HIV-1 IN. Description: biochemical. In kind it is biochemical.
The next series relates to H630 colon cancer cells. Description: MTT cytotoxicity assay. Type of series: cell-based. To be noted: at the concentration of up to 40 μM.

Each structure is given as a SMILES string. Bounds are passed on as bounds.

In the case of `O=C(O)c1cccc(OCc2ccccc2)c1O` [Compound 3a, 3-(Benzyloxy)-2-hydroxybenzoic acid], the 50% inhibitory concentration (IC50) in series [1] and in series [2] was above 100 µM throughout. In the case of `O=C(O)c1cccc(OCc2ccc(F)cc2)c1O` [Compound 3b, 3-(4-Fluorobenzyloxy)-2-hydroxybenzoic acid], the half-maximal inhibitory concentration (IC50) in series [1] and in series [2] was above 100 µM in each case. In the case of `O=C(O)c1cccc(OCc2ccc3ccccc3c2)c1O` [Compound 3c, 3-((Naphthalen-2-yl)methoxy)-2-hydroxybenzoic acid], in series [1], the IC50 is above 100 µM. For the molecule `O=C(O)c1ccc(OCc2ccccc2)cc1O` [Compound 3d, 4-(Benzyloxy)-2-hydroxybenzoic acid], the IC50 in series [1] and in series [2] was above 100 µM in each case. On to `O=C(O)c1ccc(OCc2ccc(F)cc2)cc1O` [Compound 3e, 4-(4-Fluorobenzyloxy)-2-hydroxybenzoic acid], for which the IC50 in series [1] and in series [2] was above 100 µM in each case.

On to `O=C(O)c1cc(OCc2ccccc2)ccc1O` [Compound 3f, 5-(Benzyloxy)-2-hydroxybenzoic acid], for which the concentration for half-maximal inhibition (IC50) in series [1] and in series [2] was above 100 µM throughout. With `O=C(O)c1cc(OCc2ccc(F)cc2)ccc1O` [Compound 3g, 5-(4-Fluorobenzyloxy)-2-hydroxybenzoic acid], the IC50 in series [1] and in series [2] was above 100 µM in each case.

For the molecule `O=C(O)c1c(O)cccc1OCc1ccccc1` [Compound 3h, 2-(Benzyloxy)-6-hydroxybenzoic acid], the half-maximal inhibitory concentration (IC50) in series [1] and in series [2] was above 100 µM in each case. As for `O=C(O)c1c(O)cccc1OCc1ccc(F)cc1` [Compound 3i, 2-(4-Fluorobenzyloxy)-6-hydroxybenzoic acid], the IC50 in series [1] and in series [2] was above 100 µM each time.

`O=C(O)c1c(O)cccc1OCc1ccc2ccccc2c1` [Compound 3j, 2-((Naphthalen-2-yl)methoxy)-6-hydroxybenzoic acid]: the IC50 in series [1] was above 100 µM. As to `O=C(NO)c1cccc(OCc2ccc(F)cc2)c1O` [Compound 4a, 3-(4-fluorobenzyloxy)-N,2-dihydroxybenzamide], the IC50 in series [1] and in series [2] was above 100 µM each time.

Take `O=C(NO)c1ccc(OCc2ccc(F)cc2)cc1O` [Compound 4b, 4-(4-fluorobenzyloxy)-N,2-dihydroxybenzamide]: the IC50 in series [1] is above 100 µM.

Regarding `O=C(NO)c1cc(OCc2ccc(F)cc2)ccc1O` [Compound 4c, 5-(4-fluorobenzyloxy)-N,2-dihydroxybenzamide], the IC50 in series [1] was above 100 µM. On the same count and under the same terms, the same measure for `O=C(NO)c1c(O)cccc1OCc1ccc(F)cc1` [Compound 4d, 2-(4-fluorobenzyloxy)-N,6-dihydroxybenzamide]: above 100 µM. As for `O=C(NCc1ccc(F)cc1)c1cccc(O)c1O` [Compound 5a, N-(4-Fluorobenzyl)-2,3-dihydroxybenzamide], the “cytotoxicity in H630 cells” value in the series on H630 colon cancer cells is reported as “not cytotoxic”. On to `O=C(NCc1ccc(F)cc1)c1cccc(OCc2ccccc2)c1O` [Compound 5b, 3-(Benzyloxy)-N-(4-fluorobenzyl)-2-hydroxybenzamide], for which the concentration for half-maximal inhibition (IC50) in series [1] is above 333 µM. The “cytotoxicity in H630 cells” value in the series with H630 colon cancer cells was “not cytotoxic”.

For `O=C(NCc1cccc2ccccc12)c1cccc(O)c1O` [Compound 5c, 2,3-Dihydroxy-N-(naphthalen-1-ylmethyl)benzamide], the IC50 in series [1] was above 100 µM.

For the molecule `O=C(NCc1ccc(F)c(F)c1)c1cccc(O)c1O` [Compound 5d, N-(3,4-Difluorobenzyl)-2,3-dihydroxybenzamide], the IC50 in series [1] is above 100 µM. Same read-out and setting: the same measure for `O=C(Nc1ccc2[nH]ccc2c1)c1cccc(O)c1O` [Compound 5g, 2,3-Dihydroxy-N-(1H-indol-5-yl)benzamide]: above 100 µM; for `O=C(NCc1ccc(-c2cccs2)cc1)c1cccc(O)c1O` [Compound 5j, 2,3-Dihydroxy-N-(4-(thiophen-2-yl)benzyl)benzamide]: above 100 µM. With `O=C(NC1CCNCC1)c1cccc(O)c1O` [Compound 5k, 2,3-Dihydroxy-N-(piperidin-4-yl)benzamide], the IC50 in series [1] and in series [2] was above 100 µM each time. As to `O=C(NC1CCCCC1)c1cccc(O)c1O` [Compound 5l, N-Cyclohexyl-2,3-dihydroxybenzamide], the concentration for half-maximal inhibition (IC50) in series [1] and in series [2] was above 100 µM in each case.

Take `O=C(NCC1CCCCC1)c1cccc(O)c1O` [Compound 5m, N-(Cyclohexylmethyl)-2,3-dihydroxybenzamide]: in series [1], the IC50 is above 100 µM. On the same count and under the same terms, the same measure for `CNC(=O)Cc1ccccc1CNC(=O)c1cccc(O)c1O` [Compound 5n, 2,3-Dihydroxy-N-(2-(2-(methylamino)-2-oxoethyl)benzyl)benzamide]: above 100 µM.

With `CNC(=O)c1cc(F)ccc1CNC(=O)c1cccc(O)c1O` [Compound 5o, N-(4-Fluoro-2-(methylcarbamoyl)benzyl)-2,3-dihydroxybenzamide], in series [1], the IC50 is above 100 µM. Besides, the “IN / strand transfer inhibitory potency” value in series [2] is “loss of IN inhibitory potency”. Turning to `O=C(NCc1ccc(F)cc1)c1cc(S(=O)(=O)N2CCCCC2)cc(O)c1O` [Compound 5p, N-(4-Fluoro-benzyl)-2,3-dihydroxy-5-(piperidine-1-sulfonyl)-benzamide], the “selectivity for the strand transfer over the 3′-processing reaction” value in series [2] (ratio of IC50 values) is recorded as “more than 40 fold”. For the molecule `CNS(=O)(=O)c1cc(O)c(O)c(C(=O)NCc2ccc(F)cc2)c1` [Compound 5q, N-(4-Fluorobenzyl)-2,3-dihydroxy-5-(N-methylsulfamoyl)benzamide], the IC50 in series [1] was above 100 µM. Same read-out and setting: the same measure for `O=C(NCc1ccco1)c1cc(S(=O)(=O)N2CCCCC2)cc(O)c1O` [Compound 5s, N-(Furan-2-ylmethyl)-2,3-dihydroxy-5-(piperidin-1-ylsulfonyl)benzamide]: above 100 µM; for `O=C(NCc1cccs1)c1cc(S(=O)(=O)N2CCCCC2)cc(O)c1O` [Compound 5v, N-(Thiophen-2-ylmethyl)-2,3-dihydroxy-5-(piperidin-1-ylsulfonyl)benzamide]: above 100 µM; for `CS(=O)(=O)Nc1cc(O)c(O)c(C(=O)NCc2ccc(F)cc2)c1` [Compound 5w, N-(4-Fluorobenzyl)-2,3-dihydroxy-5-(methylsulfonamido)benzamide]: above 100 µM. Same read-out and setting: the same measure for `CN(C)Cc1ccc(C(=O)NCc2ccc(F)cc2)c(O)c1O` [Compound 6a, 4-((Dimethylamino)methyl)-N-(4-fluorobenzyl)-2,3-dihydroxybenzamide]: above 100 µM; for `CN(C)Cc1ccc(C(=O)NCc2ccco2)c(O)c1O` [Compound 6b, 4-((Dimethylamino)methyl)-N-(furan-2-ylmethyl)-2,3-dihydroxybenzamide]: above 100 µM. Consider `COc1cc(S(=O)(=O)N2CCCCC2)cc(C(=O)NCc2ccco2)c1O` [Compound 6c, N-(Furan-2-ylmethyl)-2-hydroxy-3-methoxy-5-(piperidin-1-ylsulfonyl)benzamide], for which the 50% inhibitory concentration (IC50) in series [1] was above 100 µM. Moreover, in series [2], the IC50 was above 100 µM and the “IN / strand transfer inhibitory potency” value was “severe loss of potency”. For the molecule `Nc1cccc(C(=O)NCc2ccco2)c1O` [Compound 6d, 3-Amino-N-(furan-2-ylmethyl)-2-hydroxybenzamide], the IC50 in series [1] was above 100 µM. In addition, in series [2], the 50% inhibitory concentration (IC50) was above 100 µM and the “IN / strand transfer inhibitory potency” value is “severe loss of potency”.

The IC50 is the concentration that gives 50% inhibition.
